This is an account of results in US9242962B2, “Method of treatment” (GlaxoSmithKline Intellectual Property (No. 2) Limited, priority 2011, dated 2016).

In test [1] the test system is CD4+ T cells. Put plainly: T cell receptor-induced cytokine production in CD4+ T cells (multiplex ELISA). The settings on record: for IC50: Homo sapiens, CD4+ T, n=4, ±sem, read-out: pIC50, T cell receptor-induced production of IL-2 in CD4+ T cells (converted). Type of test: cell-based, human. The procedure:
(§1) 15 mls ficoll was added to 8×50 mL accuspin tubes per donor and centrifuged at 2000 RPM for 1 min. Whole blood samples (200 mL+1% heparin) were collected from human donors. Approximately 25 ml blood was added to each ficoll pre-filled 50 ml falcon tubes with filter and centrifuged at 1500 RPM for 20 min with the brake off to avoid disturbing cell separation. 45 ml with PBS was added to the PBMC fraction of each tube and centrifuged at 1500 RPM for 10 min with brake. Supernatant were discarded and cell pellets resuspended in 2 ml PBS. Cell suspensions for each donor were recombined into a single falcon tube, made up to 45 ml with PBS and centrifuged at 1500 RPM for 10 min. CD4+ T cells were isolated by negative depletion using a CD4 T cell Isolation Kit from Miltenyi Biotech according to manufacturers protocol.
96-well flat-bottom plates were coated with 10 μg/mL anti-CD3+2 μg/mL anti-CD28 at 4° C. overnight. The following day, plates were washed with PBS. For cytokine production studies, cells were added to anti-CD3+anti-CD28 pre-coated 96-well plates at 0.4×10^6 cells/well in the presence of EZH1/EZH2 inhibitors or vehicle and incubated at 37° C./5% CO2. Supernatants were taken 18 h (IL-2) or 72 h (IL-10, IL-13, IL-17, IFN, TNF) for determination of cytokine production by multiplex ELISA from Mesoscale discovery according to the manufacturers protocols.
(§2) Anti-CD3 (HU CD3 NALE MAB UCHT1; Cat #555329) and anti-CD28 (HU CD28 NALE MAB CD28.2; Cat #: 555725), were obtained from BD Pharmingen and dissolved in Dulbecco's Phosphate Buffered Saline (with Ca2+/Mg2+; Gibco). Ficoll-paque (Cat #17-1440-03) was obtained from GE Healthcare. The CD4+ T cell isolation kit (Cat #130-091-155) was obtained from Miltenyi Biotec. Cells were cultured in RPMI 1640 containing 10% FCS+1% pen/strep+1% L-glutamine. The CellTrace CFSE cell proliferation kit (Cat #C34554) was obtained from Invitrogen. Compound A, Compound B and Compound C were all synthesised in house and dissolved in 100% DMSO.
Data were analysed using Excel and are expressed as mean±standard error of the mean; n values are the numbers of human donors used. pIC50 values were generated using GraphPad Prism software and non-linear sigmoid dose curve-fit.
(ELISA stands for enzyme-linked immunosorbent assay.)

Test [2] has as its system CD4+ T cells. The test can be described thus: T cell receptor-induced CD4+ T cell proliferation (CFSE, flow cytometry). Format: cell-based, human. To be noted: 10 μg/mL αCD3 + 2 μg/mL αCD28, 6 days; for IC50: Homo sapiens, CD4+ T, 144 h, division index by CFSE, n=4, ±sem, read-out: pIC50, T cell receptor-induced proliferation of CD4+ T cells (converted). Here is the method:
as §1
96-well flat-bottom plates were coated with 10 μg/mL anti-CD3+2 μg/mL anti-CD28 at 4° C. overnight. The following day, plates were washed with PBS. For proliferation studies, cells were stained with CFSE (Invitrogen) according to manufacturer's protocol. […] Cells were then transferred to 96-well round-bottom plates, washed and then analysed by flow cytometry.
as §2
Flowjo Software was used to calculate a division index using fluorescence intensity. Data are expressed as mean±standard error of the mean; n values are the numbers of human donors used. pIC50 values were generated using GraphPad Prism software and non-linear sigmoid dose curve-fit.
(In flow cytometry, cells or beads pass a laser one at a time.)

Turning to `Cc1ccc(CNC(=O)c2cc(C3CC3)nc3c2cnn3C(C)C)c(=O)[nH]1` [Compound C, 6-cyclopropyl-1-(1-methylethyl)-N-[(6-methyl-2-oxo-1,2-dihydro-3-pyridinyl)methyl]-1H-pyrazolo[3,4-b]pyridine-4-carboxamide], the “effect on T cell receptor-induced production of IL-2 in CD4+ T cells” value in test [1] (18 h post stimulation, n=4, a pIC50 could not be calculated) is reported as “impaired”. The “effect on T cell receptor-induced production of IL-17 or IFN in CD4+ T cells” value in test [1] (72 h post stimulation, n=4) is “had no effect”. Moreover, in test [1] (High concentrations (i.e. >15 μM), 72 h, n=4), the “effect on IL-10, IL-13 & TNF production” value is “reduced”. In addition, the “effect on T cell receptor-induced proliferation of CD4+ T cells” value in test [2] (n=4) is reported as “had no effect”.

On to `CCCc1cc(C)[nH]c(=O)c1CNC(=O)c1cc(-c2ccc(N3CCN(C)CC3)nc2)cc2c1cnn2C(C)C` [Compound A, 1-(1-methylethyl)-N-[(6-methyl-2-oxo-4-propyl-1,2-dihydro-3-pyridinyl)methyl]-6-[6-(4-methyl-1-piperazinyl)-3-pyridinyl]-1H-indazole-4-carboxamide], for which the results for the IC50 in test [1] (18 h post stimulation) and in test [2] were 0.575 µM and 5.01 µM, respectively.

`Cc1cc(C)c(CNC(=O)c2cc(-c3ccc(N4CCN(C)CC4)nc3)cc3c2c(C)cn3C(C)C)c(=O)[nH]1` [Compound B, N-[(4,6-dimethyl-2-oxo-1,2-dihydro-3-pyridinyl)methyl]-3-methyl-1-(1-methylethyl)-6-[6-(4-methyl-1-piperazinyl)-3-pyridinyl]-1H-indole-4-carboxamide]: the values for the IC50 in test [1] (18 h post stimulation) and in test [2] were 1.74 µM and 11.7 µM, respectively.
